The target in one experiment is Myt1-KD (Homo sapiens (Human), UniProt Q99640). Put plainly: Thermal Shift Assay, compound binding to Myt1-KD. The following applies: 2 μM protein, 100 μM compound, Tm of compound minus Tm of DMSO. Here is the method:
The degree of compound binding to Myt1-KD was tested using a Thermal Shift Assay. Each protein was diluted to a concentration of 2 μM in 50 mM Tris (pH 7.5) with 100 μM of the compound. SYPRO™ Orange dye was added to the solution, and the plate was transferred to a QuantStudio3 Real-Time PCR System (Applied Biosystems by Thermo Fisher Scientific). […] The degree of protein melting in the presence of the compound compared to DMSO was calculated according to the following Equation 1. ΔTm=Tm (Temperature of Example compound)−Tm (Temperature of DMSO) [Equation 1]

The target of another experiment is human PKMYT1 enzyme (Homo sapiens (Human), UniProt Q99640). Briefly: Inhibitory activity against PKMYT1 kinase (ADP-Glo kinase assay). In kind it is biochemical. The following applies: purified human PKMYT1, ATP, CDK1 substrate, 25° C., 1 hour. Here is the method: To evaluate the inhibitory activity of the compounds synthesized according to the above Examples against PKMYT1 kinase, the Example compounds were reacted with purified human PKMYT1 enzyme and assessed using the following method.
human PKMYT1 enzyme, sequence (Q99640 whole entry): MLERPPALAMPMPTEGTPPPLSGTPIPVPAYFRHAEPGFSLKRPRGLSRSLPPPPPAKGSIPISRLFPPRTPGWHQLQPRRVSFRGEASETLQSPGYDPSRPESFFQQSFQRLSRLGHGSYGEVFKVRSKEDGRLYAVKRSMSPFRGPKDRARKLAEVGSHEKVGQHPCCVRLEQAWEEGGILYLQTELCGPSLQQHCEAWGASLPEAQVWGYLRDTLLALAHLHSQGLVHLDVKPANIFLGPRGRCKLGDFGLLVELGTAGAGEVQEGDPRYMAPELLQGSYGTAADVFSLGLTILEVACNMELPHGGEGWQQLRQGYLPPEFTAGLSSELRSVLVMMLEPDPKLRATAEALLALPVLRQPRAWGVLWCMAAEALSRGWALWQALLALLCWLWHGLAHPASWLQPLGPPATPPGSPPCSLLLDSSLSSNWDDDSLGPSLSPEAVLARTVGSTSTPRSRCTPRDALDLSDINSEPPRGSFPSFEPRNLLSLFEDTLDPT
The reaction buffer was used as a composition of 200 mM Tris-HCl pH 7.4, 100 mM MgCl2, 0.5 mg/mL BSA, 0.25 mM DTT, and the reactions of all the tests were carried out on the reaction buffer.
The compound was diluted in 12 steps using a serial dilution method from a 10 mM DMSO stock, and the enzyme activity was measured at a final compound concentration of 10˜0.00005645 μM. During the test, the enzyme activity was confirmed using in vitro ADP-Glo™kinase assay (Promega) after reacting with the proper concentration of PKMYT1 enzyme, purified ATP, and enzyme substrate (CDK1) at 25° C. for 1 hour. At a ratio of 2:2:1, an enzyme-active reaction solution, an ADP-Glo reaction solution, and an enzyme-active detection solution were reacted to measure the inhibition of the enzyme's activity with luminescence. Based on the […] of the enzyme activity of the solvent control that was not treated with the compound, the degree of enzyme activity inhibition was calculated according to the treatment concentration of each compound, and the concentration of each compound that inhibits 50% of enzyme activity was determined as IC50 (nM) value and the value was obtained by using GraphPad Prism 8.3.0 (GraphPad software Inc., San Diego) software.
(In general: ADP-Glo turns the ADP formed in a reaction into a luminescent signal.)

Structures are written as SMILES.

Myt1-KD, sequence (Q99640 110-359): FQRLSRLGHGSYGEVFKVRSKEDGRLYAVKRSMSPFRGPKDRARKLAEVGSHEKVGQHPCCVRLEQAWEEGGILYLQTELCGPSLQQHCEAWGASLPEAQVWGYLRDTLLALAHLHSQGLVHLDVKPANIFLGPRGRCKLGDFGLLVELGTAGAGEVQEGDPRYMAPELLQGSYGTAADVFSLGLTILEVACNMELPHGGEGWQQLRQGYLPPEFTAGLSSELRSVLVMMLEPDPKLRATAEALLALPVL

The ΔTm is the shift of the melting midpoint relative to a reference. Consider `Cc1ccc(O)c(C)c1-n1c(N)c(C(=O)c2cc3ccccc3[nH]2)c2nccnc21` (atropisomer, axis not shown) [Example 2, (R)-(6-amino-5-(3-hydroxy-2,6-dimethylphenyl)-5H-pyrrolo[2,3-b]pyrazin-7-yl)(1H-indol-2-yl)methanone], for which the ΔTm at 100 µM at Myt1-KD was at most 5 °C.

`Cc1ccc(O)c(C)c1-n1c(N)c(C(=O)c2nc3ccccc3[nH]2)c2cccnc21` (atropisomer, axis not shown) [Example 4, (R)-(2-amino-1-(3-hydroxy-2,6-dimethylphenyl)-1H-pyrrolo[2,3-b]pyridin-3-yl)(1H-benzo[d]imidazol-2-yl)methanone]: on Myt1-KD, the thermal shift (ΔTm) at 100 µM was at most 5 °C.

Usually IC50 stands for the midpoint of a concentration-inhibition curve. Higher therefore signals a need for much substance. `Cc1ccc(O)c(C)c1-n1c(N)c(C(=O)c2cc3sccc3[nH]2)c2nccnc21` (atropisomer, axis not shown) [Example 5, (S)-(6-amino-5-(3-hydroxy-2,6-dimethylphenyl)-5H-pyrrolo[2,3-b]pyrazin-7-yl)(4H-thieno[3,2-b]pyrrol-5-yl)methanone]: the shift in melting temperature (ΔTm) at 100 µM on Myt1-KD is at least 5 °C. In addition, at human PKMYT1 enzyme, the IC50 was at most 200 nM.

Regarding `Cc1ccc(O)c(C)c1-n1c(N)c(C(=O)c2cc3sccc3[nH]2)c2nccnc21` (atropisomer, axis not shown) [Example 6, (R)-(6-amino-5-(3-hydroxy-2,6-dimethylphenyl)-5H-pyrrolo[2,3-b]pyrazin-7-yl)(4H-thieno[3,2-b]pyrrol-5-yl)methanone], the “ΔTm (° C.)” value at Myt1-KD is “B (5 °C ≥ ΔTm (° C.))”.

`Cc1ccc(O)c(C)c1-n1c(N)c(C(=O)c2cc3occc3[nH]2)c2nccnc21` (atropisomer, axis not shown) [Example 7, (S)-(6-amino-5-(3-hydroxy-2,6-dimethylphenyl)-5H-pyrrolo[2,3-b]pyrazin-7-yl)(4H-furo[3,2-b]pyrrol-5-yl)methanone]: the ΔTm at 100 µM on Myt1-KD is at least 5 °C. Further, the IC50 against human PKMYT1 enzyme is at most 200 nM.

Consider `Cc1ccc(O)c(C)c1-n1c(N)c(C(=O)c2cc3occc3[nH]2)c2nccnc21` (atropisomer, axis not shown) [Example 8, (R)-(6-amino-5-(3-hydroxy-2,6-dimethylphenyl)-5H-pyrrolo[2,3-b]pyrazin-7-yl)(4H-furo[3,2-b]pyrrol-5-yl)methanone], for which, on Myt1-KD, the “ΔTm (° C.)” value was “B (5 °C ≥ ΔTm (° C.))”.

As to `Cc1ccc(O)c(C)c1-n1c(N)c(C(=O)c2cc3ccccc3[nH]2)c2nc(C)c(C)nc21` (atropisomer, axis not shown) [Example 9, (S)-(6-amino-5-(3-hydroxy-2,6-dimethylphenyl)-2,3-dimethyl-5H-pyrrolo[2,3-b]pyrazin-7-yl)(1H-indol-2-yl)methanone], the ΔTm at 100 µM at Myt1-KD is at least 5 °C. Also, the IC50 against human PKMYT1 enzyme was 200 to 500 nM.

In the case of `Cc1ccc(O)c(C)c1-n1c(N)c(C(=O)c2cc3ccccc3[nH]2)c2nc(C)c(C)nc21` (atropisomer, axis not shown) [Example 10, (R)-(6-amino-5-(3-hydroxy-2,6-dimethylphenyl)-2,3-dimethyl-5H-pyrrolo[2,3-b]pyrazin-7-yl)(1H-indol-2-yl)methanone], the “ΔTm (° C.)” value at Myt1-KD was “B (5 °C ≥ ΔTm (° C.))”.

Regarding `Cc1cc2c(C(=O)c3nc4ccccc4[nH]3)c(N)n(-c3c(C)ccc(O)c3C)c2nc1C` (atropisomer, axis not shown) [Example 11, (S)-(2-amino-1-(3-hydroxy-2,6-dimethylphenyl)-5,6-dimethyl-1H-pyrrolo[2,3-b]pyridin-3-yl)(1H-benzo[d]imidazol-2-yl)methanone], at Myt1-KD, the thermal shift (ΔTm) at 100 µM is at least 5 °C.

For `Cc1cc2c(C(=O)c3nc4ccccc4[nH]3)c(N)n(-c3c(C)ccc(O)c3C)c2nc1C` (atropisomer, axis not shown) [Example 12, (R)-(2-amino-1-(3-hydroxy-2,6-dimethylphenyl)-5,6-dimethyl-1H-pyrrolo[2,3-b]pyridin-3-yl)(1H-benzo[d]imidazol-2-yl)methanone], the “ΔTm (° C.)” value at Myt1-KD was “B (5 °C ≥ ΔTm (° C.))”.

As for `Cc1ccc(O)c(C)c1-n1c(N)c(C(=O)c2cc3cnc(N4CCOCC4)cc3[nH]2)c2nc(C)c(C)nc21` (atropisomer, axis not shown) [Example 15, (S)-(6-amino-5-(3-hydroxy-2,6-dimethylphenyl)-2,3-dimethyl-5H-pyrrolo[2,3-b]pyrazin-7-yl)(6-morpholino-1H-pyrrolo[3,2-c]pyridin-2-yl)methanone], the ΔTm at 100 µM at Myt1-KD is at least 5 °C. This compound also showed a concentration for half-maximal inhibition (IC50) at human PKMYT1 enzyme of at most 200 nM.

Take `Cc1ccc(O)c(C)c1-n1c(N)c(C(=O)c2cc3cnc(N4CCOCC4)cc3[nH]2)c2nc(C)c(C)nc21` (atropisomer, axis not shown) [Example 16, (R)-(6-amino-5-(3-hydroxy-2,6-dimethylphenyl)-2,3-dimethyl-5H-pyrrolo[2,3-b]pyrazin-7-yl)(6-morpholino-1H-pyrrolo[3,2-c]pyridin-2-yl)methanone]: the “ΔTm (° C.)” value at Myt1-KD is “B (5 °C ≥ ΔTm (° C.))”.

As for `Cc1ccc(O)c(C)c1-n1c(N)c(C(=O)c2cc3occc3[nH]2)c2nc(C)c(C)nc21` (atropisomer, axis not shown) [Example 17, (S)-(6-amino-5-(3-hydroxy-2,6-dimethylphenyl)-2,3-dimethyl-5H-pyrrolo[2,3-b]pyrazin-7-yl)(4H-furo[3,2-b]pyrrol-5-yl)methanone], the ΔTm at 100 µM on Myt1-KD is at most 5 °C.

As for `Cc1ccc(O)c(C)c1-n1c(N)c(C(=O)c2cc3occc3[nH]2)c2nc(C)c(C)nc21` (atropisomer, axis not shown) [Example 18, (R)-(6-amino-5-(3-hydroxy-2,6-dimethylphenyl)-2,3-dimethyl-5H-pyrrolo[2,3-b]pyrazin-7-yl)(4H-furo[3,2-b]pyrrol-5-yl)methanone], the “ΔTm (° C.)” value on Myt1-KD is on record as “A (ΔTm (° C.) ≥ 5° C.)”. For the same compound, the IC50 on human PKMYT1 enzyme was at most 200 nM.

On to `Cc1ccc(O)c(C)c1-n1c(N)c(C(=O)c2cc3cc(CN4CCOCC4)ccc3[nH]2)c2nccnc21` (atropisomer, axis not shown) [Example 19, (S)-(6-amino-5-(3-hydroxy-2,6-dimethylphenyl)-5H-pyrrolo[2,3-b]pyrazin-7-yl)(5-(morpholinomethyl)-1H-indol-2-yl)methanone], for which, on Myt1-KD, the ΔTm at 100 µM was at least 5 °C. In addition, the concentration for half-maximal inhibition (IC50) against human PKMYT1 enzyme is at most 200 nM.

Consider `Cc1ccc(O)c(C)c1-n1c(N)c(C(=O)c2cc3cc(CN4CCOCC4)ccc3[nH]2)c2nccnc21` (atropisomer, axis not shown) [Example 20, (R)-(6-amino-5-(3-hydroxy-2,6-dimethylphenyl)-5H-pyrrolo[2,3-b]pyrazin-7-yl)(5-(morpholinomethyl)-1H-indol-2-yl)methanone], for which the “ΔTm (° C.)” value on Myt1-KD was “B (5 °C ≥ ΔTm (° C.))”.

`Cc1ccc(O)c(C)c1-n1c(N)c(C(=O)c2cc3cc(N4CCN(C)CC4)ccc3[nH]2)c2nccnc21` (atropisomer, axis not shown) [Example 21, (S)-(6-amino-5-(3-hydroxy-2,6-dimethylphenyl)-5H-pyrrolo[2,3-b]pyrazin-7-yl)(5-(4-methylpiperazin-1-yl)-1H-indol-2-yl)methanone]: the ΔTm at 100 µM at Myt1-KD is at most 5 °C.

In the case of `Cc1ccc(O)c(C)c1-n1c(N)c(C(=O)c2cc3ccncc3[nH]2)c2nccnc21` (atropisomer, axis not shown) [Example 24, (S)-(6-amino-5-(3-hydroxy-2,6-dimethylphenyl)-5H-pyrrolo[2,3-b]pyrazin-7-yl)(1H-pyrrolo[2,3-c]pyridin-2-yl)methanone], the thermal shift (ΔTm) at 100 µM at Myt1-KD was at most 5 °C.

For `Cc1ccc(O)c(C)c1-n1c(N)c(C(=O)c2cc3ncccc3[nH]2)c2nccnc21` (atropisomer, axis not shown) [Example 26, (S)-(6-amino-5-(3-hydroxy-2,6-dimethylphenyl)-5H-pyrrolo[2,3-b]pyrazin-7-yl)(1H-pyrrolo[3,2-b]pyridin-2-yl)methanone], the shift in melting temperature (ΔTm) at 100 µM on Myt1-KD is at least 5 °C.

Consider `Cc1ccc(O)c(C)c1-n1c(N)c(C(=O)c2cc3ncccc3[nH]2)c2nccnc21` (atropisomer, axis not shown) [Example 27, (R)-(6-amino-5-(3-hydroxy-2,6-dimethylphenyl)-5H-pyrrolo[2,3-b]pyrazin-7-yl)(1H-pyrrolo[3,2-b]pyridin-2-yl)methanone], for which, at Myt1-KD, the “ΔTm (° C.)” value was “B (5 °C ≥ ΔTm (° C.))”.

`Cc1ccc(O)c(C)c1-n1c(N)c(C(=O)c2cc3sccc3[nH]2)c2nc(C)c(C)nc21` [Example 14, (R)-(6-amino-5-(3-hydroxy-2,6-dimethylphenyl)-2,3-dimethyl-5H-pyrrolo[2,3-b]pyrazin-7-yl)(4H-thieno[3,2-b]pyrrol-5-yl)methanone]: the “ΔTm (° C.)” value at Myt1-KD is “B (5 °C ≥ ΔTm (° C.))”.

On to `Cc1ccc(O)c(C)c1-n1c(N)c(C(=O)c2cc3cc(P(C)(C)=O)ccc3[nH]2)c2nccnc21` [Example 40, (6-amino-5-(3-hydroxy-2,6-dimethylphenyl)-5H-pyrrolo[2,3-b]pyrazin-7-yl)(5-(dimethylphosphoryl)-1H-indol-2-yl)methanone], for which the ΔTm at 100 µM on Myt1-KD was at least 5 °C.

The values above are taken from patent publication US20250092052A1, “HETEROARYL DERIVATIVE COMPOUNDS, AND USES THEREOF” (VORONOI INC., priority 2023, published 2025).
